Measured values from patent publication US20130150430A1, “Methods for Impairing the P53/HDM2 Auto-Regulatory Loop in Multiple Myeloma Development Using mIR-192, mIR-194 and mIR-215” (THE OHIO STATE UNIVERSITY, priority 2011, published 2013).

How the values were obtained:
Type in all cases: cell-based, human
[1] = test system: WT p53 MM cells; assay: Colony suppression assay after lentiviral miRNA transduction; conditions: lentivirus-transduced WT p53 cells; miR-34a internal control; scored at 14 days
Experimental: FIG. 3E, FIG. 3F: Soft agar colony suppression assay in WT TP53 and mutant TP53 MM cell lines after miRNAs transduction by lentivectors.
A total of 30×10^3 cells were infected with Lenti-mir-192: PMIRH 192-PA-1 Lenti-mir-194-1:PMIRH 1941PA-1; Lenti-mir-215:PMIRH 215 PA-1; Control Lentivector(pCDH-CMV-EFI-copGFP cDNA cloning and Expression vector): CD511 B-1 (System Biosciences) as per the manufacturer's protocol. MM cells were plated in quadruplicate in 1 mL of methylcellulose medium for Mouse cells (Cat#03234, Stem cell Technologies) in 6-well culture plates. Colonies consisting of more than 40 (125μ) cells were scored at 14 days.

[2] = test system: HDM2 3′UTR; assay: Luciferase reporter assay, pGL3-MDM2-3'UTR; conditions: MM1s cells, construct containing all MREs
Experimental: FIG. 4G: miRNAs predicted to interact with HDM2 gene in several consensus binding sites (x) at its 3′-UTR, according to “in silico” RNA-22 prediction software. Luciferase assay showing decreased luciferase activity in cells co-transfected with pGL3-MDM2-3′UTR and miR-192, miR-194, miR-215 and Scr sequence. See also FIG. 18. All experiments were performed in triplicate ±SD.
To verify that HDM2 is a direct target of miR-192, miR-194 and miR-215, HDM2 3′UTR containing all MREs (˜4K), was cloned into pGL3 basic construct downstream of the luciferase open reading frame (FIG. 4D). This reporter construct was used to transfect the highly transfectable MM1s cells that express the endogenous miRs following up-modulated p53 expression.
MM1s cells were cotransfected with 1 μg of pGL3 firefly luciferase reporter vector, 0.1 μg of the phRL-SV40 control vector (Promega), and 100 nM miRNA precursors (Ambion) using nucleoporation (LONZA) Cell Line Nucleofector Kit V. Firefly and Renilla luciferase activities were measured consecutively by using the Dual Luciferase Assay (Promega) 24 hr after transfection. Each reporter plasmid was transfected at least twice (on different days) and each sample was assayed in triplicate. […]

[3] = test system: p53, MDM2, p21 and Puma in MM1s cells; assay: Western blot and densitometry in miRNA-transfected cells treated with MI-219; conditions: for p53 protein in cells not treated with MI-219: forced miRNA expression, untreated MM1s cells, p<0.05; for p53 re-expression with p21 and Puma up-regulation: miRNA-transfected MM1s cells, 24 hr of 2.5 μM MI-219
Experimental: FIG. 5A: Effects of miR-192, miR-194 and miR-215 on endogenous p53, p21 and MDM2 levels (Western blots) in MM1s cells treated with MI-219 at different concentrations.
FIG. 5B: Densitometric analysis only for p53 in untreated cells and for p53 and MDM2 protein levels in 2.5, 5 and 10 μM MI-219-treated cells. All experiments were performed in triplicate ±SD.
Samples were extracted in 15 mM Tris.Cl, pH 7.5/120 mM NaCl/25 mM KCl/2 mM EGTA/0.1 mM DTT/0.5% Triton X-100/[…] leupeptin/0.5 mM PMSF. Total protein (35 μg) from each sample was separated on a 4-20% Tris-HCl-Criterion precast gel Bio-Rad (cat#345-0032, Hercules, Calif.) and transferred to a poly(vinylidene difluoride) filter (Millipore). The filter was blocked in 5% nonfat dry milk, incubated with the specific antibody, washed, and probed with secondary antibody IgG conjugated to horseradish peroxidase (Santa Cruz Biotechnology), and developed with enhanced chemiluminescence (Amersham Pharmacia). Immunoblot analyses were performed using the following antibodies: p53 (sc-53394, Santa Cruz Biotechnology), MDM2 (sc-965, Santa Cruz Biotechnology), phospho-MDM2 (Cat#3521, Cell Signaling), c-MYC (cs-40, Santa Cruz Biotechnology), IGF-1 (sc-9013, Santa Cruz Biotechnology), IGF-1R (Cat#3027, Cell Signaling), total-Akt (Cat#9272, Cell signaling), phospho-Akt (Cat#4060, Cell Signaling), total-S6 (Cat#2217, Cell Signaling), phospho-S6 (Cat#2211, Cell Signaling), p21 (sc-817, Santa Cruz Biotechnology), α-PUMA (Cat#4976, Cell Signaling), GAPDH (Cat#2118, Cell Signaling). Filters were reprobed with enzyme-conjugated antibodies to GFP and β-actin (Santa Cruz Biotechnology).
MM cells (from MM subjects or from cell lines) non-transfected or transfected with pre- or ASOs miR-192, miR-215, miR-194 and Scr sequence as described above, were treated with MDM2 inhibitor (Nutlin3a and MI-219). Fresh CD138+ primary PCs isolated from new diagnosed MM subjects as previously described were maintained in culture for 24 hr and then treated for 24 hr with 10 μM Nutlin-3a (Cayman Chemical Company) or vehicle (DMSO). For transfected cells at 24 hrs after transfection MM cells were treated with 10 μM Nutlin-3a (Cayman Chemical Company) or DMSO vehicle only at different time points. MMIS cells were also treated with MI-219 solution (10% PEG400/3% Cremophor EL/87% 1×PBS) or only vehicle (10% PEG400/3% Cremophor EL/87% 1×PBS) at different concentration (2.5, 5 and 10 μM) for 24 hr and collected for RNA and protein extractions.

Substance	colony formation [1]	luciferase expression of HDM2 3′UTR reporter [2]	p53 protein in cells not treated with MI-219 [3]	p53 re-expression with p21 and Puma up-regulation [3]
miR-215: microRNA, p53-activated, down-regulated in MM; transfected as miRNA precursor (Ambion) or lentivector; SEQ ID NO:58 (AUGACCUAUGAAUUGACAGAC; listed as RNA, chemistry not given here; listed as Homo sapiens)	suppressed colony formation to an extent comparable to miR-34a	significantly diminished	p53 became detectable	Dramatic p53 re-expression
miR-192: microRNA, p53-activated, down-regulated in MM; transfected as miRNA precursor (Ambion) or lentivector; SEQ ID NO:56 (CUGACCUAUGAAUUGACAGCC; listed as RNA, chemistry not given here; listed as Homo sapiens)	suppressed colony formation to an extent comparable to miR-34a	significantly diminished	p53 became detectable	Dramatic p53 re-expression
